In publication PMC12123366, “Effect of urea and squaramide IMPDH inhibitors on C. parvum: in vitro trial design impacts the assessment of drug efficacy” (International Journal for Parasitology: Drugs and Drug …, 2025):

Assays:
C. parvum [1] = test system: C. parvum; parameters: method as in Funkhouser-Jones et al., 2020; conditions: ref Funkhouser-Jones et al., 2020; cited from earlier work
C. parvum [2] = assay: Inhibition of C. parvum replication in infected HCT-8 cells, parasite quantification by qPCR; assay type: cell-based, Cryptosporidium parvum (Iowa strain) in human HCT-8 cells; conditions: qPCR
Description: (§1) HCT-8 cell lines (Human ileocecal adenocarcinoma) were purchased from The European Collection of Authenticated Cell Cultures (ECACC) under catalogue number No 90032006) and maintained with regular subculturing in a growth medium consisting in a RPMI 1640 medium supplemented with 1 mM sodium pyruvate, 2 mM l-glutamine, 10 % (vol/vol) of heat-inactivated fetal calf serum, 100 U/mL of penicillin and 100 μg/mL of streptomycin. Cells were grown in an incubator at 37 °C with 5 % (vol/vol) CO2 until monolayers reached 80–90 % confluency. Cells were cultivated in 96-well format plate for molecular analysis and in Lab-Tek™ Chamber Slides for microscopic analysis. 50,000 cells were seeded and incubated during 24 h (until confluency) before infection.
(§2) C. parvum oocysts of “Iowa” strain was purchased from Waterborne Inc. and stored in PBS at 4 °C. A ratio of one oocyst per cell was used to infect HCT-8 cell. Oocysts suspension was incubated with 10 % of a solution (vol/vol) containing 0.5 % sodium hypochlorite for 10 min at 4 °C. After a washing step by centrifugation at 1800g for 15 min at 4 °C, oocysts were incubated in acidified water (pH 2.4) containing 0.025 % (wt/vol) of trypsin, at 37 °C for 20 min, to trigger excystation (infectivity assay developed by [Keegan et al., 2003]). After a third centrifugation step at 1800 g for 10 min, oocysts were suspended in a maintenance medium. The maintenance medium consisted of RPMI 1640 medium with 2 mM l-glutamine, 5 mM glucose, 0.5 μM folic acid, 7 μM 4-amino-benzoic acid, 0.1 μM calcium pantothenate, 50 nM ascorbic acid, 2 % (vol/vol) heat inactivated fetal calf serum and 100 U/mL of streptomycin/penicillin. Before oocyst inoculation, the growth medium was switched with maintenance medium. Triggered oocysts were finally added on monolayers and incubated during 48 h at 37 °C in a 5 % (vol/vol) CO2 atmosphere.
(§3) The compounds (2 mg/mL in DMSO) were diluted to 500 μM and serially diluted in maintenance medium. The cytotoxicity of the compounds was assessed using the CytoTox 96® Non-Radioactive Cytotoxicity Assay (Promega, G1790) in accordance with the manufacturer's protocol.
The COWP gene (GenBank no. AF248743) was amplified by qPCR following the previously described protocol ([Guy et al., 2003]), and the parasitic concentration was determined using the standard range of C. parvum oocyst concentrations. Briefly, serial dilutions from a pure C. parvum oocyst suspension were made starting from a stock solution of 5 × 10^7 oocysts (4 × 10^5 – 2 × 10^5 – 1 × 10^5 – […]–2.5 × 10^3–1.25 × 10^3 oocysts) and the standard curve for quantifying parasites was created to obtain a correlation between Cq values and the Log of concentration.
At the end of the experiment, supernatants from the C. parvum-infected cell cultures were collected. The cell layers were then washed (1x PBS), detached using trypsin (0.25 %), and centrifuged (10,000×g, 10 min). The resulting cell pellet was re-suspended in 150–200 μL of sterile 1x PBS and stored at −20 °C for later DNA extraction. DNA extraction of C. parvum was performed using the Purelink™ Microbiome Purification Kit (Invitrogen™) following the manufacturer's protocol “Transport Media and Microbial Culture Samples” ([Invitrogen, 2015]).
FRePCR reactions were formulated to a volume of 25 μL and comprised of 1.25 μL of primers (10 μM), 0.05 μL probe (100 μM), 12.5 μL Master Mix 2X, LightCycler 480 Probes Master (ref. 04707494001, Roche), 4.95 μL H2O nuclease-free and 5 μL of DNA template. Quantitative PCR was run on a CFX96 real time PCR system (BioRad) with an initial step of activation (10 min 95 °C) following by 40 cycles with cycling conditions as follows: 95 °C for 10 s, 60 °C for 1 min. BioRad CFX manager software was used to analyse the data. Samples were considered negative if Cq ≥ 40.
A common way of defining a 50 % response is to use a mathematical model like the 4-parameter logistic model (4 PL) ([Sebaugh, 2011]). […]

HCT-8 cells = assay: CytoTox 96 Non-Radioactive Cytotoxicity Assay; assay type: cell-based, Human; conditions: 10 µM
Description: as §1, §3
An initial screening experiment was conducted on the full library to evaluate the cytotoxicity effects on HCT-8 cells. Nitrophenylurea 12 was identified as being cytotoxic so was not progressed further (See Supporting Information). In total, 21 candidates were assessed for their ability to inhibit C. parvum replication at a concentration of 10 μM. Each compound was added at the start of the infection of HCT-8 cells (T0) and remained in the culture for 48 h post infection (hpi). Parasitic quantification was then performed using a molecular method (qPCR). Of the 21 compounds tested, nine were effective inhibitors, reducing parasite proliferation by 80 % or more (Fig. 6). A clear trend emerged with all of the benzyl-substituted ureas 6–10 displaying poor inhibitory activity, regardless of the attached heteroaryl substituent. […] Two exceptions to this were imidazole-containing analogues 18 and 19. […] Among the squaramide series, the results were highly dependent on the nature of the substituent, ranging from high (e.g. ketone 29, furan 32), medium (e.g. 3-pyrazole 30) to low (e.g. 4-pyrazole 31) anti-cryptosporidial activity.

C. parvum [3] = assay: Quantification of C. parvum development in HCT-8 cells by immunofluorescence microscopy; assay type: cell-based, Cryptosporidium parvum (Iowa strain) in human HCT-8 cells; conditions: for reduction in parasite quantification: 7.5 μM
Description: as §1, §2
After aspiration of the supernatant from the Nunc™ Lab-Tek™ Chamber slide wells, cells were rinsed with PBS 1X. A fixation step was then performed using methanol during 8 min at 4 °C. Cryptosporidium developmental forms were labelled with a polyclonal IgG antibodies reaction kit tagged with Cy3 (Sporo-Glo™, Waterborne Inc.) and oocysts were labelled with FL-Crypt-a-Glo™, a fluorescein-labelled mouse monoclonal antibody made to oocyst outer wall antigenic sites (epitopes) of C. parvum. Antibodies were 1/20th diluted and incubated on cells for 1 h at room temperature. DNA was labelled with Hoechst for 5 min at room temperature. Slides were then coverslipped with a no fading mounting medium (Waterborne Inc.) and observed with a Leica DMi8 microscope. Each dilution was performed in triplicate and, for each well, ten images were taken at 400× magnification. Parasite quantification was carried out automatically using the StarDist neural network, which was specifically trained to detect and quantify C. parvum parasites.
To confirm our initial findings, we employed an alternative method using immunofluorescence microscopy to quantify C. parvum development in the presence of inhibitors (Fig. S1). […] The results corroborated our initial screening data, confirming the high efficacy of all tested chloronitrophenyl urea analogues, except for imidazole derivatives 18 and 19.
To test this hypothesis, increasing concentrations of squaramide 32 (i.e. 0, 2, 4 and 8 μM) were applied at different infection times: at 0 hpi (hours post infection), to assess the impact on parasite invasion; at 4 hpi, to examine the effect on the early stages of intracellular development; and at 30 hpi, to evaluate the influence on late stage intracellular development. The microscopic images in Fig. 7 illustrate the effect of 32 when applied at the onset of infection and at 30 hpi. Using fluorescent antibodies, the intracellular development of C. parvum is highlighted by green fluorescence, which allows for quantification of the number of parasites per image.

Cryptosporidium = conditions: cited from earlier work

COc1ccc(NC(=O)N2CCCCN3[C@H](CN(C)C)[C@H](c4ccc(C#Cc5ccccc5)cc4)[C@@H]3C2)cc1 [BRD7929]
stage-specific effect on C. parvum development (in words) (C. parvum [1]): blocks nuclear division and arrest development at the trophozoite

CC(C)(Nc1c(Nc2ccc(Cl)c([N+](=O)[O-])c2)c(=O)c1=O)c1cccc(-c2ccco2)c1 [Compound 32, (2-((4-Chloro-3-nitrophenyl)amino)-3-((2-(3-(furan-2-yl)phenyl)propan-2-yl)amino)-4-oxocyclobut-2-en-1-ylidene)oxonium]
anti-cryptosporidial activity (in words) (C. parvum [2]; 10 μM, added at T0, 48 hpi): high
inhibition rate of C. parvum replication (C. parvum [2]; 10 μM, added at start of infection (T0), 48 hpi, mean ± SD (n = 3 wells)): 87.2 ± 0.8%
IC50 (C. parvum [2]; compounds at 0, 3, 6 and 9 μM added at t0 and left until 48 hpi, read-out: IC50): 2.2 µM
Viability (HCT-8 cells): 94.94%
effect on intracellular development (green fluorescence) (C. parvum [3]; 2 μM, applied at onset of infection (0 hpi)): significantly reduces green fluorescence
effect on distribution of parasite area (C. parvum [3]; 7.5 μM or 15 μM, added at 30 hpi until 48 hpi): decreases the prevalence of both small and large parasites
reduction in parasite quantification (C. parvum [3]; added at 0 hpi, fluorescence microscopy): > 80%
reduction in parasite quantification (C. parvum [3]; added at 30 hpi, until 48 hpi, fluorescence microscopy): 46%
reduction of parasite load (C. parvum [3]; 8 μM, added at 30 hpi, 18 h of treatment, fluorescence microscopy): < 50%

CC(=O)Oc1ccccc1C(=O)Nc1ncc([N+](=O)[O-])s1 [nitazoxanide]
efficacy in immunocompromised patients (in words) (Cryptosporidium; even when administered in high doses, ref Rossignol et al., 1998): ineffective
efficacy in children (in words) (Cryptosporidium; ref Amadi et al., 2002): limited

CNC(=O)c1ccc(-c2cnc3cnc(C(=O)N(C)c4ccc(Cl)cc4)cn23)cc1 [KDU691]
stage-specific effect on C. parvum development (in words) (C. parvum [1]): effective at later stages
